Results: US8334236B2, “Ring-fused 2-pyridone derivatives and herbicides” (Kumiai Chemical Industry Co., Ltd., priority 2009, dated 2012)

Legend:
Format in all cases: in vivo
Design in all cases: scale not given here
Setaria viridis [1] = assay: Test Example 3: herbicidal effects in farmland foliar treatment; details: 1000 g active ingredient per hectare, 14th day after treatment
Echinochloa crus-galli = assay: Test Example 2: herbicidal effects in farmland soil treatment; details: 1000 g active ingredient per hectare, 21st day after treatment
Setaria viridis [2] = assay: as above; details: 1000 g active ingredient per hectare, 21st day after treatment
[3] = system: Abutilon theophrasti medicus; assay: as above; details: 1000 g active ingredient per hectare, 21st day after treatment
Experimental: (§1) 80-cm^2 plastic pots were filled with farmland soil. Seeds of Abutilon theophrasti medicus and Amaranthus retroflexus were sowed in the pots, and soil was covered. A wettable powder formulation prepared according to Formulation Example 1 was diluted with water, and the dilution was uniformly sprayed on the soil surface with a small sprayer, in an amount equivalent to 1000 liters per hectare, such that 1000 g of the active ingredient was applied per hectare. Thereafter, the plants were grown in a greenhouse, and on the 21st day after the treatment, the herbicidal effects were investigated according to the criteria described in Table 71 shown above.

Amaranthus retroflexus [4] = assay: as above; details: 1000 g active ingredient per hectare, 21st day after treatment
Experimental: as §1

[5] = system: Scirpus juncoides Roxb. var. ohwianus. T. Koyama; assay: Test Example 1: herbicidal effects in paddy field soil treatment; details: 1000 g active ingredient per hectare, 21st day after treatment
Experimental: (§2) 100-cm^2 plastic pots were filled with paddy field soil. After puddling and leveling, seeds of Echinochloa oryzicola Vasing, Monochoria vaginalis (Burm. f.) Presl var. plantaginea (Roxb.) Solms-Laub., and Scirpus juncoides Roxb. var. ohwianus. T. Koyama were sowed in the pots, and the soil was waterlogged to a water depth of 3 cm. On the next day, a wettable powder formulation prepared according to Formulation Example 1 was diluted with water, and the dilution was added dropwise onto the water surface. The amount of application was an amount equivalent to 1000 g of the active ingredient per hectare. Thereafter, the plants were grown in a greenhouse, and on the 21st day after the treatment, the herbicidal effects were investigated according to the criteria described in Table 71.
(§3) In addition, comparative compound A, comparative compound B, comparative compound C, and comparative compound D in the tables represent Compound Nos. 70, 34, 32, and 31, respectively, as described in EP-283261. The structural formulas of these compounds are presented below.

[6] = system: Monochoria vaginalis (Burm. f.) Presl var. plantaginea (Roxb.) Solms-Laub.; assay: as above; details: 1000 g active ingredient per hectare, 21st day after treatment
Experimental: as §2, §3

[7] = system: Echinochloa oryzicola Vasing; assay: as above; details: 1000 g active ingredient per hectare, 21st day after treatment
Experimental: as §2, §3

[8] = system: Echinochloa crus-galli (L.) P. Beauv. var. crus-galli; assay: Test Example 3: herbicidal effects in farmland foliar treatment; details: 1000 g active ingredient per hectare, 14th day after treatment
Experimental: (§4) 80-cm^2 plastic pots were filled with farmland soil. Seeds of Echinochloa crus-galli (L.) P. Beauv. var. crus-galli, Abutilon theophrasti medicus, and Amaranthus retroflexus were sowed in the pots, and the plants were grown for two weeks in a greenhouse. A wettable powder formulation prepared according to Formulation Example 1 was diluted with water, and the dilution was applied by foliar treatment by spraying with a small sprayer over the whole plant from the upper part, in an amount equivalent to 1000 liters per hectare, such that 1000 g of the active ingredient was applied per hectare. Thereafter, the plants were grown in a greenhouse, and on the 14th day after the treatment, the herbicidal effects were investigated according to the criteria described in Table 71 shown above.

[9] = system: Abutilon theophrasti medicus; assay: as above; details: 1000 g active ingredient per hectare, 14th day after treatment
Experimental: as §4

Amaranthus retroflexus [10] = assay: as above; details: 1000 g active ingredient per hectare, 14th day after treatment
Experimental: as §4

## CCCn1c(=O)c(C(=O)C2=C(O)CCCC2=O)cc2cccnc21 [II-4]
Setaria viridis [1]
  Herbicidal effect index, Setaria viridis: 4
Echinochloa crus-galli
  Herbicidal effect index, Echinochloa crus-galli: 5
Setaria viridis [2]
  Herbicidal effect index, Setaria viridis: 4
[3]
  Herbicidal effect index, Abutilon thophrasti: 5
Amaranthus retroflexus [4]
  Herbicidal effect index, Amaranthus retroflexus: 5
[5]
  Herbicidal effect index, Scirpus juncoides: 5
[6]
  Herbicidal effect index, Monochoria vaginalis: 5
[7]
  Herbicidal effect index, Echinochloa oryzicola: 5
[8]
  Herbicidal effect index, Echinochloa crus-galli: 5
[9]
  Herbicidal effect index, Abutilon theoprasti: 5
Amaranthus retroflexus [10]
  Herbicidal effect index, Amaranthus retroflexus: 5

## Cc1ccc2cc(C(=O)C3=C(O)CCCC3=O)c(=O)n(-c3ccccc3)c2n1 [II-123]
Setaria viridis [1]
  Herbicidal effect index, Setaria viridis: 5
Echinochloa crus-galli
  Herbicidal effect index, Echinochloa crus-galli: 5
Setaria viridis [2]
  Herbicidal effect index, Setaria viridis: 5
[3]
  Herbicidal effect index, Abutilon thophrasti: 5
Amaranthus retroflexus [4]
  Herbicidal effect index, Amaranthus retroflexus: 5
[5]
  Herbicidal effect index, Scirpus juncoides: 5
[6]
  Herbicidal effect index, Monochoria vaginalis: 5
[7]
  Herbicidal effect index, Echinochloa oryzicola: 5
[8]
  Herbicidal effect index, Echinochloa crus-galli: 5
[9]
  Herbicidal effect index, Abutilon theoprasti: 5
Amaranthus retroflexus [10]
  Herbicidal effect index, Amaranthus retroflexus: 5

## O=C1CCCC(O)=C1C(=O)c1cc2ccc(C(F)F)nc2n(-c2ccccc2)c1=O [II-133]
Setaria viridis [1]
  Herbicidal effect index, Setaria viridis: 5
Echinochloa crus-galli
  Herbicidal effect index, Echinochloa crus-galli: 5
Setaria viridis [2]
  Herbicidal effect index, Setaria viridis: 5
[3]
  Herbicidal effect index, Abutilon thophrasti: 5
Amaranthus retroflexus [4]
  Herbicidal effect index, Amaranthus retroflexus: 5
[5]
  Herbicidal effect index, Scirpus juncoides: 5
[6]
  Herbicidal effect index, Monochoria vaginalis: 5
[7]
  Herbicidal effect index, Echinochloa oryzicola: 5
[8]
  Herbicidal effect index, Echinochloa crus-galli: 5
[9]
  Herbicidal effect index, Abutilon theoprasti: 5
Amaranthus retroflexus [10]
  Herbicidal effect index, Amaranthus retroflexus: 5

## Cn1c(=O)c(C(=O)C2=C(O)CCCC2=O)cc2ccc(C(F)F)nc21 [II-131]
Setaria viridis [1]
  Herbicidal effect index, Setaria viridis: 4
Echinochloa crus-galli
  Herbicidal effect index, Echinochloa crus-galli: 4
Setaria viridis [2]
  Herbicidal effect index, Setaria viridis: 3
[3]
  Herbicidal effect index, Abutilon thophrasti: 5
Amaranthus retroflexus [4]
  Herbicidal effect index, Amaranthus retroflexus: 5
[5]
  Herbicidal effect index, Scirpus juncoides: 5
[6]
  Herbicidal effect index, Monochoria vaginalis: 5
[7]
  Herbicidal effect index, Echinochloa oryzicola: 5
[8]
  Herbicidal effect index, Echinochloa crus-galli: 4
[9]
  Herbicidal effect index, Abutilon theoprasti: 5
Amaranthus retroflexus [10]
  Herbicidal effect index, Amaranthus retroflexus: 5

## O=C1CCCC(O)=C1C(=O)c1cc2cccnc2n(Cc2cccc(Cl)c2)c1=O [II-29]
[5]
  Herbicidal effect index, Scirpus juncoides: 5
[6]
  Herbicidal effect index, Monochoria vaginalis: 5
[7]
  Herbicidal effect index, Echinochloa oryzicola: 5

## O=C1CCCC(O)=C1C(=O)c1cc2cccnc2n(Cc2ccccc2Cl)c1=O [II-28]
Setaria viridis [1]
  Herbicidal effect index, Setaria viridis: 3
[5]
  Herbicidal effect index, Scirpus juncoides: 5
[6]
  Herbicidal effect index, Monochoria vaginalis: 5
[7]
  Herbicidal effect index, Echinochloa oryzicola: 5
[8]
  Herbicidal effect index, Echinochloa crus-galli: 4
[9]
  Herbicidal effect index, Abutilon theoprasti: 5
Amaranthus retroflexus [10]
  Herbicidal effect index, Amaranthus retroflexus: 5

## COc1cccc(Cn2c(=O)c(C(=O)C3=C(O)CCCC3=O)cc3cccnc32)c1 [II-38]
[5]
  Herbicidal effect index, Scirpus juncoides: 5
[6]
  Herbicidal effect index, Monochoria vaginalis: 5
[7]
  Herbicidal effect index, Echinochloa oryzicola: 5

## COc1ccc(Cn2c(=O)c(C(=O)C3=C(O)CCCC3=O)cc3cccnc32)cc1 [II-39]
Setaria viridis [1]
  Herbicidal effect index, Setaria viridis: 3
[5]
  Herbicidal effect index, Scirpus juncoides: 5
[6]
  Herbicidal effect index, Monochoria vaginalis: 5
[7]
  Herbicidal effect index, Echinochloa oryzicola: 5
[8]
  Herbicidal effect index, Echinochloa crus-galli: 5
[9]
  Herbicidal effect index, Abutilon theoprasti: 5
Amaranthus retroflexus [10]
  Herbicidal effect index, Amaranthus retroflexus: 5

## O=C1CCCC(O)=C1C(=O)c1cc2ncccc2n(-c2ccccc2)c1=O [III-41]
[5]
  Herbicidal effect index, Scirpus juncoides: 4
[6]
  Herbicidal effect index, Monochoria vaginalis: 4
[7]
  Herbicidal effect index, Echinochloa oryzicola: 4

## CC(C)c1ccc2cc(C(=O)C3=C(O)CCCC3=O)c(=O)n(C)c2n1 [II-126]
[5]
  Herbicidal effect index, Scirpus juncoides: 4
[6]
  Herbicidal effect index, Monochoria vaginalis: 5
[7]
  Herbicidal effect index, Echinochloa oryzicola: 3

## CCn1c(=O)c(C(=O)C2=C(O)CCCC2=O)cc2c(Cl)cccc21 [I-157]
[5]
  Herbicidal effect index, Scirpus juncoides: 3
[6]
  Herbicidal effect index, Monochoria vaginalis: 4
[7]
  Herbicidal effect index, Echinochloa oryzicola: 5

## O=C1CCCC(O)=C1C(=O)c1cc2cccnc2n(Cc2ccc(Cl)cc2)c1=O [II-30]
[5]
  Herbicidal effect index, Scirpus juncoides: 5
[6]
  Herbicidal effect index, Monochoria vaginalis: 5
[7]
  Herbicidal effect index, Echinochloa oryzicola: 4

## O=C1CCCC(O)=C1C(=O)c1cc2ccc(C(F)F)nc2n(-c2ccc3c(c2)OCCO3)c1=O [II-442]
[5]
  Herbicidal effect index, Scirpus juncoides: 5
[6]
  Herbicidal effect index, Monochoria vaginalis: 5
[7]
  Herbicidal effect index, Echinochloa oryzicola: 5

## O=C1CCCC(O)=C1C(=O)c1cc2ccc(C(F)(F)F)nc2n(-c2ccccc2)c1=O [II-138]
Setaria viridis [1]
  Herbicidal effect index, Setaria viridis: 5
[5]
  Herbicidal effect index, Scirpus juncoides: 5
[6]
  Herbicidal effect index, Monochoria vaginalis: 5
[7]
  Herbicidal effect index, Echinochloa oryzicola: 5
[8]
  Herbicidal effect index, Echinochloa crus-galli: 5
[9]
  Herbicidal effect index, Abutilon theoprasti: 5
Amaranthus retroflexus [10]
  Herbicidal effect index, Amaranthus retroflexus: 3

## Cc1ccc2cc(C(=O)C3=C(O)CCCC3=O)c(=O)n(C)c2n1 [II-121]
Setaria viridis [1]
  Herbicidal effect index, Setaria viridis: 3
[5]
  Herbicidal effect index, Scirpus juncoides: 5
[6]
  Herbicidal effect index, Monochoria vaginalis: 5
[7]
  Herbicidal effect index, Echinochloa oryzicola: 5
[8]
  Herbicidal effect index, Echinochloa crus-galli: 4
[9]
  Herbicidal effect index, Abutilon theoprasti: 5
Amaranthus retroflexus [10]
  Herbicidal effect index, Amaranthus retroflexus: 5

## CCc1ccc2cc(C(=O)C3=C(O)CCCC3=O)c(=O)n(C)c2n1 [II-434]
[5]
  Herbicidal effect index, Scirpus juncoides: 5
[6]
  Herbicidal effect index, Monochoria vaginalis: 5
[7]
  Herbicidal effect index, Echinochloa oryzicola: 5

## CCn1c(=O)c(C(=O)C2=C(O)CCCC2=O)cc2cccnc21 [II-3]
Setaria viridis [1]
  Herbicidal effect index, Setaria viridis: 4
[5]
  Herbicidal effect index, Scirpus juncoides: 5
[6]
  Herbicidal effect index, Monochoria vaginalis: 5
[7]
  Herbicidal effect index, Echinochloa oryzicola: 5
[8]
  Herbicidal effect index, Echinochloa crus-galli: 5
[9]
  Herbicidal effect index, Abutilon theoprasti: 5
Amaranthus retroflexus [10]
  Herbicidal effect index, Amaranthus retroflexus: 5

## COc1ccc(-n2c(=O)c(C(=O)C3=C(O)CCCC3=O)cc3ccccc32)cc1 [I-56]
Setaria viridis [1]
  Herbicidal effect index, Setaria viridis: 3
[5]
  Herbicidal effect index, Scirpus juncoides: 5
[6]
  Herbicidal effect index, Monochoria vaginalis: 5
[7]
  Herbicidal effect index, Echinochloa oryzicola: 5
[8]
  Herbicidal effect index, Echinochloa crus-galli: 3
[9]
  Herbicidal effect index, Abutilon theoprasti: 5
Amaranthus retroflexus [10]
  Herbicidal effect index, Amaranthus retroflexus: 5
